Assay [1] concerns JAK2-dependent nuclear translocation of STAT5-GFP in U-2 OS osteosarcoma cells. In words: STAT5 nuclear translocation assay (Cellomics), rhEpo stimulated U-2 OS STAT5-GFP cells. The class given is cell-based. The note with it: Homo sapiens, U2OS; STAT5 translocation pathway. An excerpt:
The medium-throughput (96-well format) cellular automated fluorescence microscopy Cellomics assay can be routinely used to assess the functional activation of Janus Kinases (JAKs), based on the nuclear translocation of their substrate, Signal Transducer and Activator of Transcription (STAT). Nuclear translocation can be monitored either in HT1080 fibrosarcoma cells stably transfected with STAT1 fused to Green Fluorescence Protein (GFP) or in U-2 OS osteosarcoma cells stably transfected with STAT5 fused to Green Fluorescence Protein (GFP). Stimulation of HT1080 cells with interferon-γ (IFN-γ) results in JAK1/JAK2-dependent nuclear translocation of STAT1-GFP, whereas stimulation of U-2 OS cells with recombinant human erythropoietin (rhEpo) results in JAK2-dependent nuclear translocation of STAT5-GFP, both of which can be quantified using the Cellomics Cyto/NucTrans software package. This assay may be used to provide an assessment of the nuclear-cytoplasmic differential (NCD) of STAT-GFP using Hoechst dye to define the boundaries of the nucleus.
U-2 OS osteosarcoma cells may be obtained from ATCC and can be cultured in standard RPMI medium supplemented with 10% FCS and 2 mM L-glutamine. Cells can be stably transfected with STAT5a-GFP using Lipofectamine following the manufacturers' protocol. 24 hours after transfection the medium can be replaced and selected in 400 μg/ml Geneticin. Subsequently, cells can be stably transfected with EpoR using Lipofectamine following the manufacturers' protocol. 24 hours after transfection the medium can be replaced and cells selected in 100 μg/ml Hygromycin B.
Compounds can be dissolved in DMSO to a final stock concentration of 10 mM and stored as aliquots at 4° C. Compounds may be pre-diluted in 100% DMSO at 10 mM, 3 mM 1 mM, 0.3 mM, 0.1 mM, 0.03 mM, 0.01 mM and 0.003 mM. Subsequently, compounds may be diluted in medium and added in 50 μl to the cells. The final compound concentrations tested may be 10 μM, 3 μM 1 μM, 0.3 μM, 0.1 μM, 0.03 μM, 0.01 μM and 0.003 μM and the final DMSO concentration can be 0.1%.
U-2 OS may be seeded at a cell density of 12,000 cells per well in clear-bottom black 96-well Packard View-Plates™. The following day, medium can be removed and replaced with medium containing either the vehicle (DMSO) or increasing concentrations of test compounds for 30 minutes at 37° C. Cells can then be stimulated for 1 hour by adding 10 μl per well of 50 U/ml rhEpo to obtain 5 U/ml of rhEpo as the final concentration. Following treatments, cells can fixed and processed as described above.
The plates can be read on a Cellomics® ArrayscanII automated fluorescence microscope plate reader equipped with a Mercury-Xenon white light illumination source and a Zeiss Axiovert inverted microscope, using the XF100 dichroic/emission filter cube and matching excitation filters, 10× magnification, and a 0.3 numerical aperture objective. Image acquisition and analysis can be performed using a customized protocol based on the ‘NuclearTranslocation’ Bioapplication. For each well, multiple images (fields) can be acquired until a minimum of 1000 cells are counted using two 2 channels: Channel 1 (Hoechst)=focus+nuclear mask, Channel 2 (GFP)=signal quantification in mask areas as outlined below. Nuclei may be first identified based on the Hoechst staining and a mask generated for each nucleus that then serves as a template to generate a circle (eroded inwards by 1 pixel) and a 3 pixel-wide collar-like ring (off-set outwards by 1 pixel), in which the nuclear and cytoplasmic intensity of GFP, respectively, are quantified in the corresponding channel. High content analysis yields numerous measurements per cell and the GFP intensity differential between the nuclear and the cytoplasmic masks may be chosen as a measure of sub-cellular STAT-GFP relocation. The resulting values may be averaged for all cells in the well to return a single measurement plus standard deviation. […]

Assay [2] has as its target T1, GST-JAK2(808-1132) (Homo sapiens, UniProt O60674).
T1 construct: GST-JAK2(808-1132); purchased Invitrogen (Carlsbad, USA) #4288
The assay is described as follows: JAK2 kinase assay (Caliper mobility shift, LabChip 3000). The assay is classed as biochemical. Summed up:
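Eight-point compound series (final 10–0.003 μM) tested on purchased GST-JAK2 kinase domain (808-1132). Peptide FITC-JAK3tide plus ATP reacted 60 min, 30 °C, then quenched with EDTA; turnover from charge-based separation of substrate and product.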

pIC50: −log10 of the molar value.

T1 sequence (O60674 808-1132): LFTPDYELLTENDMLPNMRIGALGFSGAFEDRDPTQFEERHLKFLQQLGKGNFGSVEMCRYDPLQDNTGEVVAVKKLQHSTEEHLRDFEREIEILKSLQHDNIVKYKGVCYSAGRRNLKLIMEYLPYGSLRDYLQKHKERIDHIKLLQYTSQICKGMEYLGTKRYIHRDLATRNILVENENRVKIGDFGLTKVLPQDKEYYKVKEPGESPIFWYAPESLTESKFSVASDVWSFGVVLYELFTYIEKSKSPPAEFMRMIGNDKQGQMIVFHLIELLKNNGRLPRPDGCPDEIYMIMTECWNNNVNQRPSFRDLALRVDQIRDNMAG

Turning to `Cc1ccc(Nc2ncc3ccn(-c4cc(F)c(CN5CCOCC5)c(F)c4)c3n2)cc1CN1CCOC2(COC2)C1` [Example 358, [7-(3,5-Difluoro-4-morpholin-4-ylmethyl-phenyl)-7H-pyrrolo[2,3-d]pyrimidin-2-yl]-[3-(2,5-dioxa-8-aza-spiro[3,5]non-8-ylmethyl)-4-methyl-phenyl]-amine], the pIC50 in assay [1] is 7.23; in assay [2], 8.14.
The like results for `Cc1ccc(Nc2ncc3ccn(-c4ccc(C(=O)N5CCOCC5)c(F)c4)c3n2)cc1CN1CCOC2(COC2)C1` [Example 359, (4-{2-[3-(2,5-Dioxa-8-aza-spiro[3,5]non-8-ylmethyl)-4-methyl-phenylamino]-pyrrolo[2,3-d]pyrimidin-7-yl}-2-fluoro-phenyl)-morpholin-4-yl-methanone] were, in that order, 6.87 and 8.13.
For `C[C@@H]1CN(c2ccc(Nc3ncc4ccn(-c5cc(F)c(CN6CCOC7(COC7)C6)c(F)c5)c4n3)cn2)C[C@H](C)N1` [Example 360, [6-(cis-3,5-Dimethyl-piperazin-1-yl)-pyridin-3-yl]-{7-[4-(2,5-dioxa-8-aza-spiro[3,5]non-8-ylmethyl)-3,5-difluoro-phenyl]-7H-pyrrolo[2,3-d]pyrimidin-2-yl}-amine], the pIC50 in assay [1] was 8.14; in assay [2], 8.48.
For `CN1CCN(C(=O)c2cc(Nc3ncc4ccn(-c5cc(F)c(CN6CCOCC6)c(F)c5)c4n3)ccn2)CC1` [Example 361, {4-[7-(3,5-Difluoro-4-morpholin-4-ylmethyl-phenyl)-7H-pyrrolo[2,3-d]pyrimidin-2-ylamino]-pyridin-2-yl}-(4-methyl-piperazin-1-yl)-methanone], the pIC50 in assay [1] is 6.59; in assay [2] it was 7.64.
For the compound `O=C(c1cc(Nc2ncc3ccn(-c4cc(F)c(CN5CCOCC5)c(F)c4)c3n2)ccn1)N1CCOC2(COC2)C1` [Example 362, {4-[7-(3,5-Difluoro-4-morpholin-4-ylmethyl-phenyl)-7H-pyrrolo[2,3-d]pyrimidin-2-ylamino]-pyridin-2-yl}-(2,5-dioxa-8-aza-spiro[3.5]non-8-yl)-methanone], the pIC50 in assay [1] is 6.82; in assay [2] it was 7.62.
Consider `CC(C)(C)NS(=O)(=O)c1ccc(-n2ccc3cnc(Nc4ccc(OCCN5CCCC5)cc4)nc32)cc1` [Example 363, N-tert-Butyl-4-{2-[4-(2-pyrrolidin-1-yl-ethoxy)-phenylamino]-pyrrolo[2,3-d]pyrimidin-7-yl}-benzenesulfonamide], for which the values for the negative logarithm of the IC50 (pIC50) in assay [1] and in assay [2] were 7.96 and 8.49, respectively.
Take `Cc1ccc(Nc2ncc3ccn(-c4cc(F)c(CN5CCOCC5)c(F)c4)c3n2)cc1CN1CCN(C2CC2)CC1` [Example 365, [3-(4-Cyclopropyl-piperazin-1-ylmethyl)-4-methyl-phenyl]-[7-(3,5-difluoro-4-morpholin-4-ylmethyl-phenyl)-7H-pyrrolo[2,3-d]pyrimidin-2-yl]-amine]: the pIC50 in assay [1] was 7.37; in assay [2], 8.34.
As for `Cc1ccc(Nc2ncc3ccn(-c4ccc(C(=O)N5CCOCC5)c(F)c4)c3n2)cc1CN1CCN(C2CC2)CC1` [Example 366, (4-{2-[3-(4-Cyclopropyl-piperazin-1-ylmethyl)-4-methyl-phenylamino]-pyrrolo[2,3-d]pyrimidin-7-yl}-2-fluoro-phenyl)-morpholin-4-yl-methanone], the pIC50 in assay [1] was 7.19; in assay [2] it was 8.07.
For `Cc1ccc(Nc2ncc3ccn(-c4ccc(C(=O)N5CCOCC5)c(F)c4)c3n2)cc1CN1C[C@@H](C)N[C@@H](C)C1` [Example 367, (4-{2-[3-(cis-3,5-Dimethyl-piperazin-1-ylmethyl)-4-methyl-phenylamino]-pyrrolo[2,3-d]pyrimidin-7-yl}-2-fluoro-phenyl)-morpholin-4-yl-methanone], the values for the pIC50 in assay [1] and in assay [2] were 6.84 and 8.08, respectively.
`C[C@@H]1CN(c2ccc(Nc3ncc4ccn(-c5ccc(S(N)(=O)=O)cc5)c4n3)cn2)C[C@H](C)N1` [Example 369, 4-{2-[6-(cis-3,5-Dimethyl-piperazin-1-yl)-pyridin-3-ylamino]-pyrrolo[2,3-d]pyrimidin-7-yl}-benzenesulfonamide]: the negative logarithm of the IC50 (pIC50) was 7.24 in assay [1] and at least 8.52 in assay [2].
`Cc1ccc(Nc2ncc3ccn(-c4cc(F)c(CN5CCOCC5)c(F)c4)c3n2)cc1CN1CCN(C=O)CC1` [Example 370, 4-{5-[7-(3,5-Difluoro-4-morpholin-4-ylmethyl-phenyl)-7H-pyrrolo[2,3-d]pyrimidin-2-ylamino]-2-methyl-benzyl}-piperazine-1-carbaldehyde]: the pIC50 was 7.50 in assay [1] and at least 8.52 in assay [2].
With `C[C@@H]1CN(C(=O)c2cc(Nc3ncc4ccn(-c5cc(F)c(CN6CCOCC6)c(F)c5)c4n3)ccn2)C[C@H](C)N1` [Example 371, {4-[7-(3,5-Difluoro-4-morpholin-4-ylmethyl-phenyl)-7H-pyrrolo[2,3-d]pyrimidin-2-ylamino]-pyridin-2-yl}-(cis-3,5-dimethyl-piperazin-1-yl)-methanone], the results for the pIC50 in assay [1] and in assay [2] were 6.87 and 7.89, respectively.
Consider `CC(C)S(=O)(=O)Nc1ccc(-n2ccc3cnc(Nc4ccc(N5C[C@@H](C)N[C@@H](C)C5)nc4)nc32)cc1` [Example 375, Propane-2-sulfonic acid (4-{2-[6-(cis-3,5-dimethyl-piperazin-1-yl)-pyridin-3-ylamino]-pyrrolo[2,3-d]pyrimidin-7-yl}-phenyl)-amide], for which the results for the pIC50 in assay [1] and in assay [2] were 8.11 and 8.19, respectively.
As to `Cc1ccc(Nc2ncc3ccn(-c4ccc(S(=O)(=O)NC(C)(C)C)cc4)c3n2)cc1CN1CCNCC1` [Example 376, N-tert-Butyl-4-[2-(4-methyl-3-piperazin-1-ylmethyl-phenylamino)-pyrrolo[2,3-d]pyrimidin-7-yl]-benzenesulfonamide], the pIC50 in assay [1] was 7.17; in assay [2] it was at least 8.52.
Consider `CN1CCN(c2ccc(Nc3ncc4ccn(-c5cc(F)c(CN6CCOCC6)c(F)c5)c4n3)nc2)CC1` [Example 377, [7-(3,5-Difluoro-4-morpholin-4-ylmethyl-phenyl)-7H-pyrrolo[2,3-d]pyrimidin-2-yl]-[5-(4-methyl-piperazin-1-yl)-pyridin-2-yl]-amine], for which the pIC50 was under 5.59 in assay [1] and 7.31 in assay [2].
In the same order, the values of `O=C(c1ccc(-n2ccc3cnc(Nc4ccc(CC5CCNCC5)cc4)nc32)cc1F)N1CCOCC1` [Example 381, {2-Fluoro-4-[2-(4-piperidin-4-ylmethyl-phenylamino)-pyrrolo[2,3-d]pyrimidin-7-yl]-phenyl}-morpholin-4-yl-methanone] are 7.37 and at least 8.52.
Consider `Fc1cc(-n2ccc3cnc(Nc4ccc(CC5CCNCC5)cc4)nc32)cc(F)c1CN1CCOCC1` [Example 383, [7-(3,5-Difluoro-4-morpholin-4-ylmethyl-phenyl)-7H-pyrrolo[2,3-d]pyrimidin-2-yl]-(4-piperidin-4-ylmethyl-phenyl)-amine], for which the values for the pIC50 in assay [1] and in assay [2] were 8.21 and 8.29, respectively.
As for `CN1CCN(Cc2cc(Nc3ncc4ccn(-c5cc(F)c(CN6CCOCC6)c(F)c5)c4n3)ccn2)CC1` [Example 384, [7-(3,5-Difluoro-4-morpholin-4-ylmethyl-phenyl)-7H-pyrrolo[2,3-d]pyrimidin-2-yl]-[2-(4-methyl-piperazin-1-ylmethyl)-pyridin-4-yl]-amine], the pIC50 was 7.92 in assay [1] and at least 8.52 in assay [2].

The values are drawn from patent US8420657B2 (Novartis AG, priority 2008, dated 2013).
